Experimental data reported in patent US20220317111A1, “BIOASSAY METHOD” (KASHIV BIOSCIENCES, LLC, priority 2021, published 2022).

What was measured:
[1] = target: T1, Human bradykinin B2 receptor aequorin cell line (Homo sapiens, UniProt P30411); assay: Bradykinin B2 receptor antagonistic activity by intracellular calcium assay (Fluo-4, BK agonist); assay type: cell-based; conditions: for IC50: human B2 receptor cells, Fluo-4 calcium assay, agonist BK at EC80, with washing step
T1 sequence (P30411 1-391): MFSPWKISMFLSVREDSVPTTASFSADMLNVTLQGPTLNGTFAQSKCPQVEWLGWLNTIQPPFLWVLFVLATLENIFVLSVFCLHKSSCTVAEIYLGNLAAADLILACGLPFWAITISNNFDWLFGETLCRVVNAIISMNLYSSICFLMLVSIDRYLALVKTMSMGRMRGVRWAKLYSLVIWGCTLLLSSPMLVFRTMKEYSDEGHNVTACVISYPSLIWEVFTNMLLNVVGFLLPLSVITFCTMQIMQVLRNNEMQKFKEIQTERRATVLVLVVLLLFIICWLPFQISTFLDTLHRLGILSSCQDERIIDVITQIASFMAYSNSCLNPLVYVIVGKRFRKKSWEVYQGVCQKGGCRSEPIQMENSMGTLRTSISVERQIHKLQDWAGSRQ
Experimental: (§1) Human bradykinin B1 receptor cell line (Product #ES-091-C), Human bradykinin B2 receptor aequorin cell line (Product #ES-090-A), Fluo-4 calcium assay kits (Molecular Probes).
(§2) Agonist for B1 receptor cell line is Lys-[Des-Arg9]-Bradykinin (LDBK) and antagonist is R715. Agonist for B2 receptor cell line is BK (bradykinin) and antagonist is HOE140. All the agonist and antagonist were procured from TOCRIS. Dye loading solution was prepared by adding 10 mL of assay buffer and 100 μL of the probenecid stock solution (provided in the Kit) to one bottle of component A (dye concentrate). 0.4% Triton X-100 (4X) was used as positive control (PC) and was prepared by adding 38 uL of Triton X-100 in 10 mL of working assay buffer (WAB).
(§3) Human bradykinin B1 receptor cell line (B1) and human bradykinin B2 receptor aequorin cell line (B2) was procured from PerkinElmer, Waltham, Mass. B1 cells were cultured and maintained in Ham's F-12 medium (Gibco) supplemented with 10% fetal bovine serum (FBS) (Gibco) and 0.4 mg/ml Geneticin (Gibco) in a humidified incubator at 37° C. with 5% CO2. B2 cells were cultured and maintained in Ham's F-12 medium (Gibco) supplemented with 10% fetal bovine serum (FBS) (Gibco), 0.4 mg/ml Geneticin (Gibco) and 5 μg/ml Puromycin (Gibco) in a humidified incubator at 37° C. with 5% CO2. All the test compounds were weighed and dissolved in DMSO and a stock of 20 mM was prepared and stored at −20° C.
(§4) Bradykinin receptor antagonist screening assay was performed using Fluo-4 calcium assay kits by following the manufacturer's instruction. Briefly, approximately 30,000 of human either B1 or B2 cells were seeded in each well of a 96 black well plate. After 24 h, the growth media was removed and washed with 200 μL of assay buffer provided in the Fluo-4 calcium assay kits. Thereafter, 100 uL of Flu-4 dye-loading solution was added in each well of 96 well plate and incubated it at 37° C. for about 30 min. After about 30 minutes of incubation at room temperature, dye loading solution was removed and washed with 200 μL of WAB (mentioned in materials). Post washing, into 100 uL of WAB, 50 uL of WAB or 50 uL of cell line receptor specific antagonist (mentioned in materials) or test compound dilutions were added in 96 well plate. The plates were incubated for 20 min at room temperature with shaking at 300 rpm. At the end of the incubation time, the plates were inserted into the CLARIOstar microplate reader and % gain was adjusted. Thereafter, the plates were read at Ex/Em=494/516 nm for baseline RFU (Range 1). Thereafter, the microplate reader was paused at 11th cycle and 50 uL of 4× (EC80) cell line specific agonist (mentioned in materials) or PC dilution prepared in WAB was added and manually the plates were shaked for 5 sec. Again, the plates were read at Ex/Em=494/516 nm (Range 2).
(§5) Delta RFU was calculated using the formula:
(§6) Delta RFU=Range 2 avg RFU−Range 1 avg RFU
(§7) Based on the data the IC50 or Percent Inhibition of all the compounds was calculated.
(§8) Note: The above assay was performed using plate (flying) mode function of CLARIOstar.

[2] = target: T2, Human bradykinin B1 receptor cell line (Homo sapiens, UniProt P46663); assay: Bradykinin B1 receptor antagonistic activity by intracellular calcium assay (Fluo-4, LDBK agonist); assay type: cell-based; conditions: human B1 receptor cells, Fluo-4 calcium assay, agonist LDBK at EC80, with washing step
T2 sequence (P46663 1-353): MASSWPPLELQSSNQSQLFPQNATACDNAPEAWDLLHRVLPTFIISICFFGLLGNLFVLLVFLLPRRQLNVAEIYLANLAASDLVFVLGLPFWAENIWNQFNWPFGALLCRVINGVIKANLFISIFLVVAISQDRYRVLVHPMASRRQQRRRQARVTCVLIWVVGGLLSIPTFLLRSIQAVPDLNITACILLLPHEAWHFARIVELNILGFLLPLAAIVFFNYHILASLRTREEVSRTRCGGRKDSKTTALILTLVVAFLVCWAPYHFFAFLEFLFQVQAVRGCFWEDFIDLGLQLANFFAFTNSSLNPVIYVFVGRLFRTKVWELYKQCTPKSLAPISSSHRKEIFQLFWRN
Experimental: as §1, §2, §3, §4, §5, §6, §7, §8

| Compound | IC50 [1] [µM] | IC50 [2] [µM] | IC50 without washing steps relative to IC50 with washing step [1] |
| --- | --- | --- | --- |
| Nc1ccc(/N=N/c2ccc(O)cc2)c(N)n1 [Compound III] | 21.3 | 27.1 | – |
| Nc1nc(N)c(/N=N/c2ccccc2)cc1O [Compound II] | 13.2 | 12.5 | – |
| Nc1ccc(/N=N/c2ccccc2O)c(N)n1 [Compound IV] | 10.9 | 8.4 | – |
| Nc1ccc(/N=N/c2ccccc2)c(N)n1 [Compound I] | 31.9 | 32.4 | – |
| Nc1nc(N)c(/N=N/c2ccc(O)cc2)cc1O [Compound V] | > 100 | 29.5 | – |
| HOE-140 [reference compound] | – | – | approximately 15 fold |
